Laboratory results reported in patent US9388166B2, “6-aminoindole derivatives as TRP channel antagonists” (Hoffmann-La Roche Inc., priority 2012, dated 2016).

target: T1, hTRPA1 (Homo sapiens, UniProt O75762); assay: Dose response calcium flux (FLIPR) assay, ChanTest hTRPA1-CHO stably transfected cell line, cinnamaldehyde agonist; type: cell-based; conditions: CHO-K1 Tet-On hTRPA1 Clone 20 cells, 30 min compound preincubation, cinnamaldehyde final 100 uM
T1 construct: host or cells: CHO-K1 Tet-On, clone 20, expression induced with tetracycline/doxycycline
T1 sequence (O75762 whole entry): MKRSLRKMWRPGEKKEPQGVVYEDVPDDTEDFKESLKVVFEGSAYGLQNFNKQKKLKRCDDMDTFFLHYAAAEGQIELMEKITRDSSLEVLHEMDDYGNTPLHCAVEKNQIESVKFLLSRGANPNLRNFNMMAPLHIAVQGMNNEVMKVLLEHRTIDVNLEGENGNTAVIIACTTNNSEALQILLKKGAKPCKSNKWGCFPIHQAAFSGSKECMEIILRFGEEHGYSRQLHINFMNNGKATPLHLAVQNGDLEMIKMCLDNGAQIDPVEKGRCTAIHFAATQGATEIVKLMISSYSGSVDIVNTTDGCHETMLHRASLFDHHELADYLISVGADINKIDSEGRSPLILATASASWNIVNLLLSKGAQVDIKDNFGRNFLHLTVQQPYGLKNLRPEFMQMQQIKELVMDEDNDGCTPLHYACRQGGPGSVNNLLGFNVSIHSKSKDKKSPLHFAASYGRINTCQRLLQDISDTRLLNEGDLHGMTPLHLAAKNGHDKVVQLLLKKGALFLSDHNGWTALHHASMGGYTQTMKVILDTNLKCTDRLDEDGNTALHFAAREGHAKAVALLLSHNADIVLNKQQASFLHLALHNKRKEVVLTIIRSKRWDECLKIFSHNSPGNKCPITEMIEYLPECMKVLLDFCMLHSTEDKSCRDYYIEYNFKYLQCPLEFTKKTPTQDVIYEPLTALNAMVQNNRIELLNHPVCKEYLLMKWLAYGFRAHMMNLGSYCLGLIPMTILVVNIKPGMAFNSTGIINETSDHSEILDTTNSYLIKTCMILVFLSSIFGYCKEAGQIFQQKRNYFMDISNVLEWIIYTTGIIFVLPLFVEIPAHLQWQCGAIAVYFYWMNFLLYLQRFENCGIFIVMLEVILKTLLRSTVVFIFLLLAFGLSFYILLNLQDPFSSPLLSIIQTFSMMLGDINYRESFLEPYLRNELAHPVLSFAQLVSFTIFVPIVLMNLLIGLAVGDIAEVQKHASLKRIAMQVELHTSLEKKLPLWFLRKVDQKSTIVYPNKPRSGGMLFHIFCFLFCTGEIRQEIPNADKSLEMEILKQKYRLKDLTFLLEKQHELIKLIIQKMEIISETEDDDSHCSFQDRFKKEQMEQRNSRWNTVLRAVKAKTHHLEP
Protocol: Dose Response Assay: ChanTest hTRPA1-CHO Stably Transfected Cell Line
To induce expression, tetracycline was added to blasticidin/zeocin-free media at a final concentration of 1 ug/ml. Experiments were run at 24 h post induction.
Measured cell density and diluted to 2.4×10^5 cells/ml in media containing 1 ug/ml Doxycycline Plate 25 ul/well into 384 well black/clear tissue culture-treated plates.
Replacement Buffer: Hank's Balanced Salt Solution, 20 mM HEPES along with 0.005% BSA and 2× Probenecid
Dye Loading Buffer: Cal-3 NW Calcium dye was prepared by dissolving the contents of one vial with 500 ml Hank's Balanced Salt Solution containing 20 mM HEPES. • Control compounds for CHOK1/TRPA1 cells:
AP-18, stock 10 mM, prepare 3.5× compound dilution in a Compound Buffer (HBSS/20mM HEPES/0.005% BSA)—final concentration 10 uM.
Preparation of Cinnamaldehyde (agonist addition): • FW=132.16 • Specific gravity=1.046 gm/cc • 1.32 gm/1.046 gm/cc=1.26 ml of stock • Add 1.74 ml DMSO=3.3 M stock • Working solution 4.5× (final 100 uM in Compound Buffer: HBSS/20 mM HEPES/0.005% BSA)
Compounds dilutions were prepared from 5 or 10 mM stock (100% DMSO):
Compounds were tested at either 20 μM three folds dilution 11 steps out or 30 μM two folds dilution 11 steps out.
3 μl of diluted compound were transferred into Weidmann 384—well plate in duplicates side-by-side.
Compound plates were resuspended with 100 ul of HBSS/20 mM HEPES/0.005% BSA buffer (Compound Buffer): • column 1A-H: buffer/DMSO (bk) • column 2A-H: AP-18(control antagonist for CHOK1 TRPA1 cells) • column 1I-P: ATP (control for CHOK1 teton cells) • column 2 I-P: 2APB (control antagonist for CHOK1/TRPM8 cells).
Growth media was removed from the cell plates (20 ul) and 20 ul of the Replacement Buffer was added followed by addition of 25 ul of diluted dye. All three steps were performed using a Plate Washer BioTek 407. The plates were then incubated for 30′ at RT.
After incubation, both the cell and compound plates were brought to the FLIPR and 20 ul of the diluted compounds/antagonist/bk were transferred to the cell plates by the FLIPR. Plates were then incubated for 30′ at room temperature. After 30′ incubation, plates were returned to the FLIPR and 20 ul of 4.5× Cinnamaldehyde was added to the cell plates. During the compound addition as well as agonist addition, fluorescence readings were taken simultaneously from all 384 wells of the cell plate every 1.5 seconds. Five readings were taken to establish a stable baseline, then 20 μl of sample was rapidly (30 ul/sec) and simultaneously added to each well of the cell plate. The fluorescence was continuously monitored before, during and after sample/agonist addition for a total elapsed time of 100 seconds (compound addition) and 120 seconds (agonist addition). Responses (increase in peak fluorescence) in each well following agonist addition was determined. The initial fluorescence reading from each well, prior to ligand stimulation, was used a zero baseline value for the data from that well.

Row | Structure (SMILES) | IC50 [µM]
1 | COc1nccc(I)c1-c1cc2ccc(NC(=O)OC(C)(C)C)cc2[nH]1 [Example 1, [2-(4-Iodo-2-methoxy-pyridin-3-yl)-1H-indol-6-yl]-carbamic acid tert-butyl ester] | 4
2 | COc1nccc(I)c1-c1cc2ccc(NC(=O)C(F)(F)F)cc2[nH]1 [Example 2, 2,2,2-Trifluoro-N-[2-(4-iodo-2-methoxy-pyridin-3-yl)-1H-indol-6-yl]-acetamide] | 0.71
3 | COc1nccc(I)c1-c1cc2ccc(NC(=O)C(F)F)cc2[nH]1 [Example 3, 2,2-Difluoro-N-[2-(4-iodo-2-methoxy-pyridin-3-yl)-1H-indol-6-yl]-acetamide] | 4.2
4 | COc1nccc(Cl)c1-c1cc2ccc(NC(=O)C(F)(F)F)cc2[nH]1 [Example 4, N-[2-(4-Chloro-2-methoxy-pyridin-3-yl)-1H-indol-6-yl]-2,2,2-trifluoro-acetamide] | 0.46
5 | CNc1ccc2cc(-c3c(I)ccnc3OC)[nH]c2c1 [Example 5, [2-(4-Iodo-2-methoxy-pyridin-3-yl)-1H-indol-6-yl]-methyl-amine] | 5.5
6 | COc1nccc(I)c1-c1cc2ccc(N(C)C(=O)C(F)F)cc2[nH]1 [Example 6, 2,2-Difluoro-N-[2-(4-iodo-2-methoxy-pyridin-3-yl)-1H-indol-6-yl]-N-methyl-acetamide] | 3.3
7 | COc1nccc(I)c1-c1cc2ccc(N(C)C(C)=O)cc2[nH]1 [Example 7, N-[2-(4-Iodo-2-methoxy-pyridin-3-yl)-1H-indol-6-yl]-N-methyl-acetamide] | 3.6
8 | COc1cc2cc(-c3c(I)ccnc3OC)[nH]c2cc1N [Example 8, 2-(4-Iodo-2-methoxy-pyridin-3-yl)-5-methoxy-1H-indol-6-ylamine] | 0.74
9 | COc1cccc(Cl)c1-c1cc2ccc(N)cc2[nH]1 [Example 9, 2-(2-Chloro-6-methoxy-phenyl)-1H-indol-6-ylamine] | 4.3
10 | COc1cccc(Cl)c1-c1cc2ccc(NC(=O)C(F)(F)F)cc2[nH]1 [Example 10, N-[2-(2-Chloro-6-methoxy-phenyl)-1H-indol-6-yl]-2,2,2-trifluoro-acetamide] | 0.75
11 | COc1nccc(I)c1-c1cc2ccc(NC(=O)c3cccc(Cl)c3)cc2[nH]1 [Example 11, 3-Chloro-N-[2-(4-iodo-2-methoxy-pyridin-3-yl)-1H-indol-6-yl]-benzamide] | 2.9
12 | COc1nccc(Cl)c1-c1cc2ccc(NC(=O)c3cccc(Cl)c3)cc2[nH]1 [Example 12, 3-Chloro-N-[2-(4-chloro-2-methoxy-pyridin-3-yl)-1H-indol-6-yl]-benzamide] | 5.6
13 | COc1nccc(Cl)c1-c1cc2ccc(NC(=O)[C@@H]3CCCCN3S(=O)(=O)c3ccc(F)cc3)cc2[nH]1 [Example 13, (S)-1-(4-Fluoro-benzenesulfonyl)-piperidine-2-carboxylic acid[2-(4-chloro-2-methoxy-pyridin-3-yl)-1H-indol-6-yl]amide] | 3.5
